Laboratory results taken from PMC9124651, “High-performance thin-layer chromatography in combination with an acetylcholinesterase-inhibition bioassay with pre-oxidation of organothiophosphates to determine neurotoxic effects in storm, waste, and surface water” (Analytical and Bioanalytical Chemistry, 2022).

Molecular target: T1, AChE from electric eel (Electrophorus electricus) (Electrophorus electricus, UniProt O42275)
T1 construct: purchased Sigma-Aldrich GmbH (Steinheim, Germany)
Experiment: HPTLC-(Ox)-AChE-I assay, immersion method (plates immersed in AChE solution)
Type: biochemical
Details: without oxidation; for IC10 (10% AChE inhibition), best fit / IC20 (20% AChE inhibition), best fit / IC50 (50% AChE inhibition), best fit / IC80 (80% AChE inhibition), best fit: OTPs 100 µL, oxons 10 µL applied, peak heights, n = 3
Protocol: LiChrospher 10 × 20 cm HPTLC Silica gel 60 F254s plates (Merck, Darmstadt, Germany) with a layer thickness of 170–190 µm and spherical silica particles with a size of 7 µm were used. The HPTLC plates were immersed twice in 2-propanol for 20 min, each time followed by a drying step at room temperature for 20 min. The plates then were pre-developed with methanol, dried for 20 min at room temperature, heated at 105 °C for 20 min, and stored in a desiccator for further use. The automatic TLC Sampler 4 (ATS 4, CAMAG AG, Muttenz, Switzerland) was used for sample application. The desired sample volumes were sprayed as 6-mm-wide bands onto the HPTLC plates with an application speed of 300 nL/s. The distances of the exterior bands from the edges of the plates were 15 mm. The distance from the bottom edge was 8 mm for all bands. Methanol was used as rinsing solvent. The following further application parameters were used: filling speed 15 µL/s, pre-dosage volume 200 nL, retraction volume 200 nL, rinsing vacuum time 4 s, filling vacuum time 0 s, rinsing cycles 2, and filling cycles 1. The development of the HPTLC plates was realized by the Automated Multiple Development 2 (AMD 2, CAMAG, Muttenz, Switzerland). The OTPs, their oxons, and environmental samples were separated with an eluent mixture of cyclohexane, dichloromethane, and acetone in different proportions and with increasing migration distances (Fig. S2). After each development step, a drying step of 3 min under vacuum followed. The final migration distance was 80 mm and the whole procedure took approximately 45 min. In addition, a simpler development process was used containing only the last step of the previous described method.
After chromatographic development, 10 mL of freshly prepared NBS (100 µg/mL) was sprayed onto the HPTLC plates with a glass reagent sprayer, followed by a 5-min incubation at room temperature. The following AChE-I assay was performed in parts according to Mendoza et al., Stütz et al., and Weins and Jork. AChE was buffered in TRIS/HCl at a pH of 7.8 (2.5 U/mL). The AChE solution was either sprayed onto the HPTLC plates with a glass reagent sprayer until the plates were evenly moist (approx. 10 mL) or the plates were immersed in the AChE solution using the Chromatogram Immersion Device 3 (CID 3, CAMAG, Muttenz, Switzerland). The immersion volume, speed, time, and depth were approx. 200 mL, 2.5 cm/s, 2 s, and approx. 85 mm, respectively. Afterward, the plates were placed separately in closed plastic boxes, which contained paper towels moistened with water to gain a saturated atmosphere. An incubation at 37 °C for 5 min followed. The substrate indoxyl acetate was freshly prepared in methanol at a concentration of 20 mg/mL and 5 mL was sprayed onto the HPTLC plates with a glass reagent sprayer. During 45-min incubation time at room temperature, AChE cleaves the substrate into indoxyl and acetate. The indoxyl reacts with oxygen to the blue indigo dye. When AChE was inhibited, no indigo was produced and the spot stayed white. The TLC Scanner 3 (CAMAG, Muttenz, Switzerland) was used to scan each track on the plates at 670 nm using the fluorescence mode without optical filter. The CAMAG-embedded software Wincats (Vers. 1.4.9) was used to provide chromatograms of each track and to evaluate inhibition zones.
Several amounts of an OTP mix and an oxon mix were applied on HPTLC plates (Tab. S2) and tested as described in the “Combination of HPTLC and AChE-inhibition assay” section. Three plates were used for each dilution series. The application volume was 10 µL for investigating OTPs with following oxidation and 100 µL for testing OTPs without following oxidation. The application volume for the oxons was 10 µL. They were tested without oxidation step also in triplicates. The peak heights were used for evaluation. Only peaks that have a signal-to-noise ratio ≥ 3 were considered in the evaluation. The height next to the respective peak defines the noise. […]

T1 sequence (O42275 24-633): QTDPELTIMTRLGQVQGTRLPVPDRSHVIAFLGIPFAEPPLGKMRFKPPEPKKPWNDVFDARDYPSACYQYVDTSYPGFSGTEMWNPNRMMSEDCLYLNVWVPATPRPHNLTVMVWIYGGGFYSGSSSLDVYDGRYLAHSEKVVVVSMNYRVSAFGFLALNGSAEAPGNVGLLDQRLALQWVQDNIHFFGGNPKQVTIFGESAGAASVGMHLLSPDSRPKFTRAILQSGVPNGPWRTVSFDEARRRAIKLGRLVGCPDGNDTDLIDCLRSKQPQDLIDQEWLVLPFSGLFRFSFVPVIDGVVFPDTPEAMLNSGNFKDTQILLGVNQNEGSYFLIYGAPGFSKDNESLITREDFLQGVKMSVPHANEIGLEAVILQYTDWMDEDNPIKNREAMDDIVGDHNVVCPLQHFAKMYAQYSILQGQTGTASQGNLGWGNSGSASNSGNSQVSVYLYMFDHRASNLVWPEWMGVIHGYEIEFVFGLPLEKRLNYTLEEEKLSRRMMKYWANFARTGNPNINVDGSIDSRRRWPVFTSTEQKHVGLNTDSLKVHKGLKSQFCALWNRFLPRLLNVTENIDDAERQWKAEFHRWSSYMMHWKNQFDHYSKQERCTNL

Compound | LOD immersion method (first detected AChE-I peak with signal-to-noise ratio ≥ 3) [ng/spot] | IC10 (10% AChE inhibition), best fit [ng/spot] | IC20 (20% AChE inhibition), best fit [ng/spot] | IC50 (50% AChE inhibition), best fit [ng/spot] | IC80 (80% AChE inhibition), best fit [ng/spot]
CCOP(=O)(OCC)Oc1nc(Cl)c(Cl)cc1Cl [Chlorpyrifos-oxon] | 0.25 | 0.32 | 0.57 | 1.5 | 4.0
CCOC(=O)CC(SP(=O)(OC)OC)C(=O)OCC (stereo not shown) [Malaoxon, malaoxon] | 0.1 | 0.14 | 0.24 | 0.60 | 1.5
